Measurements taken from US20130089591A1, “Compositions” (Givaudan SA, priority 2010, published 2013).

How the values were obtained:
[1] = Aggregation of polyamide capsules (Example 2 method); type: physicochemical; design: key to Encapsulation, No precursor (scale of aggregation) / Encapsulation, With precursor (scale of aggregation): ∘: no aggregation of the capsules; +: aggregation of few capsules together only visible under microscopy; ++: aggregates of mm size; +++: important aggregation; ++++: aggregation is such that a cake is obtained; details: for Encapsulation, No precursor (scale of aggregation): free aldehyde as phase B at 5% in phase A of Table 1; for Encapsulation, With precursor (scale of aggregation): precursor of the aldehyde (Method 1.1) as phase B at 5% in phase A of Table 1
Protocol: An oil phase was prepared by dissolving isophtahaloyl dichloride (Fluka) in oil (oil composition specified in the examples below) at a level of 10%
An aqueous solution (Solution S1) was prepared by dissolving a polyvinyl alcohol Mowiol 4-88 (Kuru ray) in water at a level of 1%.
An aqueous solution (Solution S2) was prepared when triethylentetraamine (Hunstman) was diluted in water at a level of 3%.
100 g of the oil phase was mixed with 450 g of solution S1 to form an oil-in-water emulsion in a 1 L reactor equipped with a MIG stirrer operating at 1000 rpm. After 5 minutes of mixing, 450 g of solution S2 was slowly added. The resultant slurry of polyamide capsules was kept under stirring for 2 H.
Two capsule populations were formed. A first encapsulating IPM (isopropyl myristate) and a second containing IPM+5% of ethyl vaniline. The capsules were made according to the method of Example 2.
The methodology of Example 2 was applied to encapsulate different perfume oils described as phase A (non aldehyde raw materials) and phase B (aldehyde raw materials).
The phase B was added at 5% to the phase A prior to encapsulation. Different compositions of phase B have been used corresponding each time to a single aldehyde perfume molecule or to its precursor formed according to the methodology of Method 1.1, above.
According to the condition of the slurry a scale of aggregation has been defined as follows: […]
(§1) ∘ no aggregation of the capsules + aggregation of few capsules together only visible under microscopy ++ aggregates of mm size +++ important aggregation ++++ aggregation is such that a cake is obtained

[2] = Aggregation of polyurea capsules, Method 5.5; type: physicochemical; design: key: ∘: no aggregation of the capsules; +: aggregation of few capsules together only visible under microscopy; ++: aggregates of mm size; +++: important aggregation; ++++: aggregation is such that a cake is obtained; details: polyurea Method 5.5, phase A of Table 1; for Encapsulation, No precursor (scale of aggregation): free aldehyde as phase B; for Encapsulation, With precursor (scale of aggregation): precursor (Method 1.1) as phase B
Protocol: An oil phase was prepared when Desmodur W and Desmodur N3300 (Bayer) were added in perfume oil at a level of 2.2% and 13% respectively.
An aqueous phase (Solution S1) was prepared when Gantrez AN119 (ISP) was added to water, at a level of 1.6%. The solution was heated at 70° C. for 10 min to disperse the polymer.
An aqueous phase (Solution S2) was prepared when Ethylene diamine (Merck) was added to water, at a level of 7.5%.
30 g of the oil phase was mixed with 80 g of solution S1, to form an oil-in-water emulsion, in a 250 mL vessel equipped with a propeller operating at 1000 rpm.
After 10 min of stirring, 20 g of solution S2 was added.
The slurry was stirred for 30 min at room temperature, then heated to 60° C. and stirred for 3 H at 60° C. before cooling.
The Method 5.5 of Example 5 was applied to encapsulate different perfume oils described as phase A (non aldehyde raw materials) and phase B (aldehyde raw materials).
The composition of Phase A was described in Table 1 above. Phase B is an aldehyde perfume molecule used as such or as its precursor form prepared according to Method 1.1.
According to the aspect of the slurry a scale of aggregation was defined as follow: […]
as §1
Phase B was added at a level of 20% of aldehyde in phase A.

[3] = Aggregation of polyurea capsules, Method 5.6; type: physicochemical; design: key: ∘: no aggregation of the capsules; +: aggregation of few capsules together only visible under microscopy; ++: aggregates of mm size; +++: important aggregation; ++++: aggregation is such that a cake is obtained; details: polyurea Method 5.6, phase A of Table 1; for Encapsulation, No precursor (scale of aggregation): free aldehyde as phase B; for Encapsulation, With precursor (scale of aggregation): precursor (Method 1.1) as phase B
Protocol: An oil phase was prepared when Desmodur VL R20 (Bayer) was added in perfume oil at a level of 2.5%.
An aqueous phase (Solution S1) was prepared when Mowiol 4-88 (Kururay) was added in water, at a level of 0.1%.
An aqueous phase (Solution S2) was prepared when diethylentriamine (Merck) was added in water, at a level of 2%.
100 g of oil phase was mixed with 250 g of solution S1, to form an oil-in-water emulsion, in a 500 mL vessel equipped with a propeller operating at 1000 rpm.
After 10 min of stirring, 50 g of solution S2 was added.
The slurry was stirred for 4 h at room temperature.
The Method 5.6 of Example 5 was applied to encapsulate different perfume oils described as phase A (non aldehyde raw materials) and phase B (aldehyde raw materials).
The composition of Phase A is described in Table 1. Phase B is an aldehyde perfume molecule used as such or as its precursor form prepared according to Method 1.1.
According to the aspect of the slurry a scale of aggregation has been defined as follow: […]
as §1

[4] = Aggregation of polyurea capsules, Method 5.7; type: physicochemical; details: polyurea Method 5.7; phase B at 5% in phase A of Table 1
Protocol: An oil phase was prepared when Desmodur N3300 (Bayer) was added in perfume oil at a level of 6.7%.
An aqueous phase (Solution S1) was prepared when_Mowiol 4-88 (Kururay) was added in water, at a level of 1.1%.
An aqueous phase (Solution S2) was prepared when Hydrosil 1151 (Evonik) was added in water, at a level of 75%.
134 g of oil phase was mixed with 440 g of solution 51, to form an oil-in-water emulsion, in a 1 L vessel equipped with a propeller operating at 1000 rpm.
After 10 min of stirring, 45 g of solution S2 was added.
[…] the slurry was kept at 40° C. for 2 h more before cooling.
The Method 5.7 of Example 5 was applied to encapsulate different perfume oils described as phase A (non aldehyde raw materials) and phase B (aldehyde raw materials).
The composition of Phase A is described in Table 1. Phase B is an aldehyde perfume molecule used as such or as its precursor form added at a level of 5% in Phase A.

[5] = Aggregation of polyurea capsules, Method 5.1; type: physicochemical
Protocol: An oil phase was prepared by adding Desmodur W (Isocyanate from Bayer) to a perfume oil at a level of 16.6%.
An aqueous phase (solution S1) was prepared by adding Luviskol k90 (BASF) to water, at a level of 4.5%. The pH of the solution was adjusted to 11.5 by addition of NaOH at 10%.
An aqueous phase (Solution S2) was prepared when Lupasol PR8515 (BASF) was added to water, at a level of 10%.
300 g of the oil phase was mixed with 500 g of solution S1, to form an oil-in-water emulsion, in a 1 L reactor equipped with a MIG stirrer operating at 1000 rpm.
After 30 minutes of mixing, 200 g of solution S2 was added over a period of 1 minute.
After 30 minutes, the slurry was heated up to 70° C. (1 H), then kept for 2 H at 70° C., then heated to 80° C. and kept for 1 H at 80° C., then heated to 85° C. and kept for 1 H at 85° C., then cooled to 70° C. and kept for 1 H at 70° C. before final cooling at 25° C.
The Method 5.1 of Example 5 was applied to encapsulate different perfume oils described as phase A (non aldehyde raw materials) and phase B (aldehyde raw materials).
In the following trials, phase A was IPM and phase B was aldehyde perfume molecules. Phase B was added at a level of 5% in phase A.
Phase B contains aldehyde C11 iso or the corresponding precursor prepared according to Method 1.1.
Phase B was added at a level of 5% in phase A.

[6] = Water solubility of the aldehyde
[7] = Aggregation of polyurea capsules, Method 5.4; type: physicochemical; details: polyurea Method 5.4; phase B at 4% of aldehyde in phase A
Protocol: An oil phase was prepared when Desmodur W (Bayer) was added in perfume oil at a level of 16.6%.
An aqueous phase (Solution S1) was prepared when Mowiol 40-88 (Kururay) was added in water, at a level of 4.5%.
An aqueous phase (Solution S2) was prepared when Lupasol PR8515 (BASF) was added in water, at a level of 10%.
240 g of oil phase was mixed with 640 g of solution S1, to form an oil-in-water emulsion, in a 1 L reactor equipped with a mig operating at 1000 rpm.
After 30 min, the slurry is heated up to 50° C. and the solution S2 is slowly added (1 H).
The slurry is then heated up to 70° C. and kept for 2 H at 70° C., then heated to 80° C. and kept for 1 H at 80° C., then heated to 85° C. and kept for 1 H at 85° C., then cooled to 70° C. and kept for 1 H at 70° C. before final cooling at 25° C.
The Method 5.4 of Example 5 was applied to encapsulate different perfume oils described as phase A (non aldehyde raw materials) and phase B (aldehyde raw materials).
Phase B is tricyclal or the precursor of tricyclal obtained according to Method 1.1.
Phase B was added at a level of 4% of aldehyde in phase A.

| Encapsulation, No precursor (scale of aggregation) [1] | Encapsulation, With precursor (scale of aggregation) [1] | Encapsulation, No precursor (scale of aggregation) [2] | Encapsulation, With precursor (scale of aggregation) [2] | Encapsulation, No precursor (scale of aggregation) [3] | Encapsulation, With precursor (scale of aggregation) [3] | Slurry aspect [4] | Quality of the capsules examined microscopically ([5]; IPM + aldehyde) | Encapsulation (aggregation) ([5]; free aldehyde at 5% in IPM) | Water solubility ([6]; Table 2) [ppm] | Water solubility ([6]; Table 3) [ppm] | Water solubility ([6]; Table of Example 11) [ppm] | Water solubility ([6]; Table of Example 13) [ppm] | Aggregation of the capsules obtained [7] | SMILES |
| --- | --- | --- | --- | --- | --- | --- | --- | --- | --- | --- | --- | --- | --- | --- |
| ++ | ∘ | ∘ | ∘ | ∘ | ∘ | cake | – | – | – | – | – | – | – | CC(C=O)Cc1ccc(C(C)(C)C)cc1 (centres unmarked) [Lilial] |
| ++++ | ∘ | ++++ | ∘ | +++ | ∘ | – | aggregated | Aggregation | 700 | 700 | 700 | 700 | slightly aggregated | CC1=CC(C)C(C=O)CC1 (centres unmarked) [Tricyclal] |
